How the values were obtained:
Assay type in all cases: physicochemical
[1] = Dye solubility (saturated aqueous solution, spectrophotometric); settings: summary of Table 2
Method: Dye solubility was determined with a spectrophotometer in the UV and in the visible spectral region. The spectra of the pure disazo dyes according to the invention were measured in a buffered aqueous solution at a value of pH of 7.0. Saturated aqueous solutions of the dyes were prepared at a temperature of 50° C. These solutions were afterwards cooled down to room temperature and diluted for the measurements after a waiting time of 24 hours in such a way that the absorption at the absorption maximum was between 0.8 and 1.5. This dilution factor allows the calculation of dye solubility.

[2] = Light stability of printed patches (Weather-Ometer, xenon lamp); parameters: key to Light Stability (Class) on Recording Sheet A / Light Stability (Class) on Recording Sheet B / Light Stability (Class) on Recording Sheet C / Light Stability (Class) on Recording Sheet D / Light Stability (Class) on Recording Sheet E / Light Stability (Class) on Recording Sheet F / Light Stability (Class) on Recording Sheet G: A: excellent; B: good; C: satisfactory; D: unsatisfactory; settings: for Light Stability (Class) on Recording Sheet A: A: HP Printing Paper HPP 1122 (paper), 20° C., 50% relative humidity; for Light Stability (Class) on Recording Sheet A / Light Stability (Class) on Recording Sheet B / Light Stability (Class) on Recording Sheet C / Light Stability (Class) on Recording Sheet D / Light Stability (Class) on Recording Sheet E / Light Stability (Class) on Recording Sheet F / Light Stability (Class) on Recording Sheet G: 20 megalux hours; for Light Stability (Class) on Recording Sheet B: B: HP Premium Plus (polymer based); for Light Stability (Class) on Recording Sheet C: C: ILFORD Galerie Smooth Glossy (nanoporous); for Light Stability (Class) on Recording Sheet D: D: ILFORD Printasia Premium Photo Glossy Paper (nanoporous); for Light Stability (Class) on Recording Sheet E: E: ILFORD Galerie Classic Gloss Paper (polymer based); for Light Stability (Class) on Recording Sheet F: F: EPSON Premium Glossy Photo Paper (nanoporous); for Light Stability (Class) on Recording Sheet G: G: CANON Photo Paper Pro PR-101 (nanoporous)
Method: (§1) The present invention, as far as it relates to recording liquids, is illustrated by the following examples using the disazo dyes of Table 1 according to the invention and dyes representing the state of the art. For each dye, 100 g of recording liquid were prepared by heating the necessary amount of dye (2.0 g-5.0 g), 6.0 g of ethylene glycol, 3.0 g of propylene-1,2-glycol, 3.0 g of 1-methyl-2-pyrrolidone, 0.3 g of an aqueous solution (50%) of Olin® 10G (available from Arch Chemicals Inc., Norwalk, USA), 0.3 g of Surfinol® 465 (available from Air Products and Chemicals Inc., Allentown, USA) and 0.1 g of Mergal® K 10N (available from Riedel-de-Haën, Seelze, Germany) together with water at a temperature of 50° C. under stirring for approximately 1 hour. The resulting solution was cooled down to a temperature of 20° C., its value of pH was adjusted to 7.5 and the solution was passed through a Millipore® filter of 0.3 μm pore diameter. The dye quantity was adjusted in such a way that the optical density of the printed image was similar for all dyes.
(§2) Homogeneously colored square patches with an approximate density of 1.40 were then printed, using these recording liquids, with an ink jet printer Canon BJC 8500 onto the following recording sheets: • A: HP Printing Paper HPP 1122 (paper) • B: HP Premium Plus (polymer based recording sheet) • C: ILFORD Galerie Smooth Glossy (nanoporous recording sheet) • D: ILFORD Printasia Premium Photo Glossy Paper (nanoporous recording sheet) • E: ILFORD Galerie Classic Gloss Paper (polymer based recording sheet) • F: EPSON Premium Glossy Photo Paper (nanoporous recording sheet) • G: CANON Photo Paper Pro PR-101 (nanoporous recording sheet)
The printed samples were irradiated using a Weather-Ometer® Ci35A (available from Atlas Material Testing Technology, Chicago, USA) with a 6500 W xenon lamp at a temperature of 20° C. and relative humidity of 50% until an illumination of 20 megalux hours was reached. The density loss was measured with a densitometer Spectrolino®. The percent density loss of initial density gives an indication of the light stability of the dyes on the printed recording sheet.

[3] = Stability against degradation by ozone of printed patches; parameters: key: A: excellent; B: good; C: satisfactory; D: unsatisfactory; settings: ozone 1 ppm, 30° C., 50% relative humidity; for Resistance against Degradation by Ozone (Class) on Recording Sheet C: C: ILFORD Galerie Smooth Glossy (nanoporous); for Resistance against Degradation by Ozone (Class) on Recording Sheet D: D: ILFORD Printasia Premium Photo Glossy Paper (nanoporous); for Resistance against Degradation by Ozone (Class) on Recording Sheet F: F: EPSON Premium Glossy Photo Paper (nanoporous); for Resistance against Degradation by Ozone (Class) on Recording Sheet G: G: CANON Photo Paper Pro PR-101 (nanoporous)
Method: as §1, §2
The optical density of the colored square patches was measured with a Spectrolino® densitometer. Afterwards, the printed samples were stored for a predetermined time (for example 48 hours) in an ozone chamber, model 903 (available from Satra/Hampden, Great Britain) at a temperature of 30° C., a relative humidity of the air of 50% and an ozone concentration of 1 ppm at a velocity of the circulating, ozone containing air of 13 mm/s. After storage, the samples were re-measured. The density differences of these two measurements, expressed as per cent of the initial density, are an indication of the amount of dye loss due to the exposure to ozone.

O=S(=O)([O-])c1cc(/N=N/c2ccc(Nc3nc(NCCCN4CCOCC4)nc(Nc4ccc(/N=N/c5cc(S(=O)(=O)[O-])c6cccc(S(=O)(=O)[O-])c6c5)cc4)n3)cc2)cc2c(S(=O)(=O)[O-])cccc12.[Na+].[Na+].[Na+].[Na+] [Dye No. IV, reference compound]
solubility (in words) [1]: equally high water solubility
Light Stability (Class) on Recording Sheet A [2]: C
Light Stability (Class) on Recording Sheet B [2]: A
Light Stability (Class) on Recording Sheet C [2]: D
Light Stability (Class) on Recording Sheet D [2]: C
Light Stability (Class) on Recording Sheet E [2]: C
Light Stability (Class) on Recording Sheet F [2]: B
Light Stability (Class) on Recording Sheet G [2]: B
light stability on all recording sheets (in words) ([2]; all recording sheets, summary of Table 4): satisfactory or even unsatisfactory light stability
Resistance against Degradation by Ozone (Class) on Recording Sheet C [3]: A
Resistance against Degradation by Ozone (Class) on Recording Sheet D [3]: B
Resistance against Degradation by Ozone (Class) on Recording Sheet F [3]: A
Resistance against Degradation by Ozone (Class) on Recording Sheet G [3]: A

CN(CCS(=O)(=O)[O-])c1nc(Nc2ccc(N=Nc3cc(S(=O)(=O)[O-])c4cccc(S(=O)(=O)[O-])c4c3)cc2)nc(Nc2ccc(N=Nc3cc(S(=O)(=O)[O-])c4cccc(S(=O)(=O)[O-])c4c3)cc2)n1.[Na+].[Na+].[Na+].[Na+].[Na+] [Dye No. 14]
Light Stability (Class) on Recording Sheet A [2]: B
Light Stability (Class) on Recording Sheet B [2]: A
Light Stability (Class) on Recording Sheet C [2]: A
Light Stability (Class) on Recording Sheet D [2]: B
Light Stability (Class) on Recording Sheet E [2]: B
Light Stability (Class) on Recording Sheet F [2]: B
Light Stability (Class) on Recording Sheet G [2]: B
Resistance against Degradation by Ozone (Class) on Recording Sheet C [3]: A
Resistance against Degradation by Ozone (Class) on Recording Sheet D [3]: A
Resistance against Degradation by Ozone (Class) on Recording Sheet F [3]: A
Resistance against Degradation by Ozone (Class) on Recording Sheet G [3]: A

— patent US20080022467A1, “Disazo dyes and their preparation and use” (ILFORD Imaging Switzerland GmbH, priority 2006, published 2008)
